pEC50, pKi: −log10 of the molar value.
Legend:
Adenosine receptor A1 = molecular target: T1, Adenosine receptor A1 (Homo sapiens, UniProt P30542)
T1 sequence (P30542 whole entry): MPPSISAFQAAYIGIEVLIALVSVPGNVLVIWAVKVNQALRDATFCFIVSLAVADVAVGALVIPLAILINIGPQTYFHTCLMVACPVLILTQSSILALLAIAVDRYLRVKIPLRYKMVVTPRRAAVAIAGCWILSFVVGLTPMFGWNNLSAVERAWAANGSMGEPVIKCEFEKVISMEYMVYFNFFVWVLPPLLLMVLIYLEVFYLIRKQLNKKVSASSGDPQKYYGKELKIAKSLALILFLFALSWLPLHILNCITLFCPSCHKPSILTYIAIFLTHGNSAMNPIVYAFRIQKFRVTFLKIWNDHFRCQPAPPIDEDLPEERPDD

Adenosine receptor A2b = molecular target: T2, Adenosine receptor A2b (Homo sapiens, UniProt P29275)
T2 sequence (P29275 whole entry): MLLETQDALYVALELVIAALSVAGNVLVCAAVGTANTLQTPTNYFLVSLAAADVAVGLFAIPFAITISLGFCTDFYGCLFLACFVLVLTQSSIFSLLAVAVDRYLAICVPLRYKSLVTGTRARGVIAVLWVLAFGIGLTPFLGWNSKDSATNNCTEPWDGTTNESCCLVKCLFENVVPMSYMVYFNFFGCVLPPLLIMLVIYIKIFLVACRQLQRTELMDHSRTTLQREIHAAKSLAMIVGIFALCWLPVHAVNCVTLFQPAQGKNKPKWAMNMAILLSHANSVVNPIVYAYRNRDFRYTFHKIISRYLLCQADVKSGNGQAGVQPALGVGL

[1] = molecular target: T3, Adenosine receptor A2b (Homo sapiens) (UniProt P29275); assay: Displacement of [3H]PSB-603 from human A2B receptor expressed in CHO cell membranes at 1 uM measured after 3 hrs by radioligand binding assay relative to control; settings: Membrane
T3 sequence (whole entry): T2 sequence (P29275 whole entry)

Adenosine receptor A2a [2] = molecular target: T4, Adenosine receptor A2a (Homo sapiens, UniProt P29274)
T4 sequence (P29274 whole entry): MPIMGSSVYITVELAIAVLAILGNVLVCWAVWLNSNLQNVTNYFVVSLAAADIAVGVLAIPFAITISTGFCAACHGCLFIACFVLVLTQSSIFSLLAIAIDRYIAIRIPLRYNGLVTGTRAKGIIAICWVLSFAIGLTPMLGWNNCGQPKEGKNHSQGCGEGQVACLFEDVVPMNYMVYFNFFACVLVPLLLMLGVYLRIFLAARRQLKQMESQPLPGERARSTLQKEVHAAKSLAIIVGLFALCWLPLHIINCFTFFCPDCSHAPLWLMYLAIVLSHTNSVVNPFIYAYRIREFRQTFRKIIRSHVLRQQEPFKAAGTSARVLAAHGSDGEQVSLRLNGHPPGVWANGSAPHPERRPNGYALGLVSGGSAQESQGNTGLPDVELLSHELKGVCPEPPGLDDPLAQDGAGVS
Description: Displacement of [3H]ZM241385 from human A2A receptor expressed in HEK293 cell membranes measured after 3 hrs by radioligand binding assay

Adenosine receptor A2a [3] = molecular target: T4, Adenosine receptor A2a; remark: listed apart in the source
[4] = molecular target: T5, Adenosine receptor A1 (Homo sapiens) (UniProt P30542); assay: Displacement of [3H]DPCPX from human A1 receptor expressed in CHO cell membranes at 10 uM measured after 3 hrs by radioligand binding assay relative to control; settings: Membrane
T5 sequence (whole entry): T1 sequence (P30542 whole entry)

Adenosine receptor A2a [5] = molecular target: T4, Adenosine receptor A2a; assay: Displacement of [3H]ZM241385 from human A2A receptor expressed in HEK293 cell membranes at 10 uM measured after 3 hrs by radioligand binding assay relative to control; settings: Membrane
[6] = molecular target: T6, Adenosine receptor A3 (Homo sapiens) (UniProt P0DMS8); assay: Displacement of [3H]PSB-11 from human A3 receptor expressed in CHO cell membranes at 10 uM measured after 3 hrs by radioligand binding assay relative to control; settings: Membrane
T6 sequence (whole entry): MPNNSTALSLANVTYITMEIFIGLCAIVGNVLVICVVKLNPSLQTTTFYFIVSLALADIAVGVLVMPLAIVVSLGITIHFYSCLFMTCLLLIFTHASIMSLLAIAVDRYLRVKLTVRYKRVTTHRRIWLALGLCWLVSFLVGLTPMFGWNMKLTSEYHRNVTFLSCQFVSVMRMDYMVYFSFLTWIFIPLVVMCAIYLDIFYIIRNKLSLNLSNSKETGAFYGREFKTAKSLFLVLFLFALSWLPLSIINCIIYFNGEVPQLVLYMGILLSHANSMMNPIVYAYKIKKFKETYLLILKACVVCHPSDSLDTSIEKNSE

Adenosine receptor A3 = molecular target: T7, Adenosine receptor A3 (Homo sapiens, UniProt P0DMS8)
T7 sequence (P0DMS8 whole entry): T6 sequence (whole entry)
Description: Displacement of [3H]PSB-11 from human A3 receptor expressed in CHO cell membranes measured after 3 hrs by radioligand binding assay

| Structure (SMILES) | pKi (Adenosine receptor A1) | Activity ([1]; filed as partial agonist) [%] | pKi (Adenosine receptor A2a [2]) | pEC50 (Adenosine receptor A2a [3]) | Activity [1] [%] | further results |
| --- | --- | --- | --- | --- | --- | --- |
| N#Cc1c(-c2ccccc2)cc(SCc2ncc[nH]2)nc1N | 6.38 | – | – | – | – | pKi (Adenosine receptor A2b): 6.43 |
| Nc1nc(SCc2ncc[nH]2)nc(-c2ccccc2)n1 | 6.54 | – | 6.25 | 6.09 | 2 | – |
| Nc1cc(-c2ccccc2)cc(SCc2ncc[nH]2)n1 | – | – | – | – | -12 | Activity [4]: 12%; Activity (Adenosine receptor A2a [5]): -17%; Activity [6]: 46% |
| N#Cc1c(-c2ccccc2)cc(N)nc1SCc1ncc[nH]1 | 6.95 | – | – | – | 37 | – |

Second part, led by results:

| pKi (Adenosine receptor A1) | Activity ([1]; filed as partial agonist) [%] | pKi (Adenosine receptor A2a [2]) | pEC50 (Adenosine receptor A2a [3]) | Activity [1] [%] | Structure (SMILES) | further results |
| --- | --- | --- | --- | --- | --- | --- |
| 7.16 | 50 | 8.00 | 7.35 | – | N#Cc1c(SCc2ncc[nH]2)nc(N)nc1-c1ccccc1 | – |
| 7.07 | 51 | – | – | – | N#Cc1c(N)nc(SCc2ncc[nH]2)nc1-c1ccccc1 | pKi (Adenosine receptor A3): 6.46 |

From ChEMBL document CHEMBL5038576 (J Med Chem, 2021)
